In patent US5986083A, “Synthetic oligomers having phosphonate internucleosidyl linkages of undefined chirality mixed with non-phosphonate internucleosidyl linkages” (priority 1994, dated 1999):

Test system: complementary RNA target
Assay: Thermal dissociation from complementary RNA target (second Example H)
Assay type: binding
Details: for Td: 50% of bound oligomer denatured from RNA target, pH 6.8 denaturation buffer; for ΔTd/DE Bond: per DE bond
Method: The following oligomers [SEQ. ID. NO. ] were tested for their ability to bind a complementary RNA target. Each has the same nucleotide sequence but with a different number of phosphodiester and/or methylphosphonate linkages.
An RNA target containing a tandem array of complementary target sequences connected by noncomplementary sequences (170 nt long) was prepared from synthetic DNA oligonucleotides by standard closing techniques.
Each of the test oligomers (above) was end-labeled with ^32 p using […] and T4 polynucleotide kinase. The resulting labeled oligomers were purified on a Nensorb-20 column (New England Nuclear/DuPont) according to the manufacturer's specifications. The final specific activity of each oligomer ranged between 2×10^6 and 4×10^6 cpm/pmol (Cerenkov radiation). Annealing reactions were prepared with one of the test oligomers (100,000 cpms) and 250 pmols of RNA target in 20 mM potassium phosphate, 0.03% potassium sarkosylate, 0.1 mM EDTA, pH 7.2, total volume--200 μL. These annealing reactions were heated to 80° C. and then cooled slowly to 4° C. over a period of about 4 to 6 hours. Next, 20 μL aliquots from each tube were transferred to separate tubes containing 0.5 mL of 0.1 M sodium phosphate, 0.1% Triton X-100, pH 6.8. This transfer step was done on ice. The resulting tubes were individually heated at various temperatures "denaturation temperatures", ranging from 10 to 70° C.) in a circulating water bath for five minutes and then quickly cooled by immersion in crushed ice. Next, 10 μL of Amine BioMag (Advanced Magnetics, Inc., Cat. No. M-4100, 50 mg/mL stock in water) was added to the tube and it was vortexed briefly and placed back on ice for 5 minutes. During this time period, the RAN target strands (both free and bound) separated onto the magnetic support. […] Thus, the amount of radioactivity bound to the support was proportional to the amount of hybridized oligomer remaining at each denaturation temperature after five minutes. A curve was then plotted for the percentage of hybridized oligomer remaining at each denaturation temperature. The thermal dissociation temperature (Td) was defined as the temperature at which 50% of the bound oligomer had denatured away from the RNA target. The following table summarizes the results from this experiment.

Substance	Td [°C]	ΔTd/DE Bond [°C]
5'-GpAmTpAmTpCmTpGmCmGmGmTpGmTpCmCmAmT-3' [Oligomer 1359]	34.0	0.9
5'-GpAmTmAmTmCmTmGmCmGmGmTmGmTmCmCmAmT-3' [Oligomer 1036]	29.3	
5'-GpAmTmAmTdCmTmGpCmGmGmTmGmTpCmCmAmT-3' [Oligomer 1362]	30.7	0.5
5'-GpAmTmAmTmCpTmGmCpGmGmTmGmTmCpCpAmT-3' [Oligomer 1361]	32.2	0.7
5'-GpAmTpAmTpCpTpGmCpGmGmTpGmTpCpCpAmT-3' [Oligomer 1363]	45.2	1.8
